{"source": "patent US5814640A", "about": "“Method of treating gastrointestinal malignancies” (Montefiore Medical Center, priority 1997, dated 1998)", "key": {"HT-29": {"test_system": "HT-29", "experiment": "Cytokinetic studies (cell cycle distribution by flow cytometry), HT-29", "type": "cell-based, human", "quoted_text": "Cells were cultured in RPMI 1640 with 10% fetal calf serum. Doubling times for these cell lines are 18 and 25 hours.\nThe DNA content of propidium-iodide stained nuclei was measured by flow cytometry. Cells in early exponential growth were incubated with or without drug, trypsinized and washed twice in PBS. A total of 10^6 viable cells, as determined by trypan blue exclusion, were permeabilized in sucrose-citrate-DMSO buffer as described by Vindelov et al., enucleated with trypsin and incubated with RNAse. Stripped nuclei were stained with propidium iodide at a final concentration of 2.5 ug/ml. Correlated dual parameter measurements of DNA content (from propidium-iodide red fluorescence excited at 488 nm) versus forward angle light scatter were performed using an EPICS C flow cytometer equipped with a 5W ultraviolet enhanced argon ion laser. Histograms consisting of a minimum of 10,000 nuclei were analyzed off-line with an EPICS C to RSX-11M conversion program (EPICOPY) and subsequently analyzed with ROMP and ROC3D programs rewritten for a DEC 11/73 computer. Cell cycle analysis for the compartmental boundaries and number of cells in the G1, S, and G2M phases was performed on ROMP-readable files using either a multiple gaussian fitting routine developed by Dean et al. or, for the perturbed histograms, a parametric method based on multiple broadened rectangles. […]"}, "colorectal cancer": {"test_system": "colorectal cancer", "settings": "cited from earlier work"}, "SW480": {"test_system": "SW480", "experiment": "Cytokinetic studies (cell cycle distribution by flow cytometry), SW480", "type": "cell-based, human", "protocol": "Cells were cultured in RPMI 1640 with 10% fetal calf serum.\nThe DNA content of propidium-iodide stained nuclei was measured by flow cytometry. Cells in early exponential growth were incubated with or without drug, trypsinized and washed twice in PBS. A total of 10^6 viable cells, as determined by trypan blue exclusion, were permeabilized in sucrose-citrate-DMSO buffer as described by Vindelov et al., enucleated with trypsin and incubated with RNAse. Stripped nuclei were stained with propidium iodide at a final concentration of 2.5 ug/ml. Correlated dual parameter measurements of DNA content (from propidium-iodide red fluorescence excited at 488 nm) versus forward angle light scatter were performed using an EPICS C flow cytometer equipped with a 5W ultraviolet enhanced argon ion laser. Histograms consisting of a minimum of 10,000 nuclei were analyzed off-line with an EPICS C to RSX-11M conversion program (EPICOPY) and subsequently analyzed with ROMP and ROC3D programs rewritten for a DEC 11/73 computer. Cell cycle analysis for the compartmental boundaries and number of cells in the G1, S, and G2M phases was performed on ROMP-readable files using either a multiple gaussian fitting routine developed by Dean et al. or, for the perturbed histograms, a parametric method based on multiple broadened rectangles."}, "[1]": {"settings": "5-fluorouracil 50-500 uM, 24 hour incubation"}, "[2]": {"settings": "alone or in combination, data not shown"}}, "data": [{"compound": "O=c1[nH]cc(F)c(=O)[nH]1", "note": "[5-fluorouracil]", "values": [{"measurement": "G2M compartment, dose response", "setting": "HT-29; [1]", "result": "nearly complete depletion of G2M"}, {"measurement": "time of G2M depletion from start of incubation", "setting": "HT-29; time course, 5-fluorouracil 50 uM, alpha-2a-interferon 500 U/ml", "result": "≤ 7", "unit": "h"}, {"measurement": "median survival of treated patients", "setting": "colorectal cancer; compared with untreated controls", "result": "no better than that of untreated controls"}, {"measurement": "remissions in patients", "setting": "colorectal cancer; disseminated colorectal cancer", "result": "15-35 % of patients"}, {"measurement": "G2M compartment, dose response", "setting": "SW480; [1]", "result": "nearly complete depletion of G2M"}, {"measurement": "accumulation of cells in S and G2M", "setting": "SW480; 24 hours, alone or in combination, data not shown", "result": "concomitant decrease in the accumulation of cells in S and G2M at 24 hours"}, {"measurement": "block in G0/G1", "setting": "SW480; [2]", "result": "prolongation of the block in G0/G1 to 24 hours"}, {"measurement": "effects on cell cycle distribution compared with HT-29", "setting": "SW480; [2]", "result": "qualitatively identical effects"}]}]}
